From ChEMBL document CHEMBL2176876, “Discovery of potent and selective pyrazolopyrimidine janus kinase 2 inhibitors” (J Med Chem, 2012)

Assays:
[1] = Permeability from apical to basolateral side in MDCK cells; assay type: ADME, cell-based, Canis lupus familiaris; settings: dog, read-out: permeability
[2] = Volume of distribution at steady state in Sprague-Dawley rat at 0.1 to 1 mg/kg, iv; assay type: ADME, organism-based; parameters: dose 0.1-1 mg/kg, route intravenous; settings: in vivo, read-out: Vdss
[3] = Oral bioavailability in Sprague-Dawley rat at 5 mg/kg; assay type: ADME, organism-based; settings: in vivo
[4] = Volume of distribution at steady state in Balb/C mouse at 0.5 mg/kg, iv; assay type: ADME, organism-based; parameters: dose 0.5 mg/kg, route intravenous; settings: in vivo, read-out: Vdss
[5] = Oral bioavailability in Balb/C mouse at 5 mg/kg; assay type: ADME, organism-based; settings: in vivo

Compound | Papp A→B [1] | Vd [2] | bioavailability [3] | Vd [4] | bioavailability [5]
CNc1ccn2ncc(C(=O)Nc3cc(C)nn3-c3cccc(Cl)c3)c2n1 | 15.1 ×10⁻⁶ cm/s | 0.843 L/kg | 30% |  | 
Cn1cc(NC(=O)c2cnn3cccnc23)c(-c2cccc(Cl)c2)n1 |  | 0.349 L/kg | 124% |  | 
Cc1cc(NC(=O)c2cnn3cccnc23)n(-c2cccc(Cl)c2)n1 | 10.5 ×10⁻⁶ cm/s | 0.293 L/kg | 44% |  | 

More lines, now with the values ahead:

Papp A→B [1] | Vd [2] | bioavailability [3] | Vd [4] | bioavailability [5] | Compound
 | 0.355 L/kg | 7% |  |  | Cn1cc(NC(=O)c2cnn3ccc(N)nc23)c(-c2cccc(Cl)c2)n1
10.5 ×10⁻⁶ cm/s | 1.08 L/kg | 63% |  |  | Cn1cc(NC(=O)c2cnn3ccc(N)nc23)c(-c2cc(Cl)ccc2Cl)n1
8.4 ×10⁻⁶ cm/s | 0.185 L/kg | 1% | 0.27 L/kg | 8.6% | Cc1cc(NC(=O)c2cnn3ccc(N)nc23)n(-c2cccc(Cl)c2)n1
